Source: patent publication US5935973A, “Heterocyclcarboxamide derivatives and their use as therapeutic agents” (Knoll Aktiengesellschaft, priority 1995, dated 1999)

Columns and labels:
5-HT1A receptors = target: T1, 5-HT1A receptors (Rattus norvegicus, UniProt P19327); assay: inhibition of [3H]8-OH-DPAT binding to 5-HT1A receptors in rat hippocampal tissue; settings: rat hippocampus; for inhibition at 1 µM: at 10^-6 M, [3H]8-OH-DPAT, read-out: % displacement of radio ligand, 5-HT1A; for Ki: [3H]8-OH-DPAT 2 nM, 25° C., 30 min
T1 construct: Hippocampal tissue from the brains of male Sprague-Dawley rats; from tissue; host or cells: rat hippocampus membranes
T1 sequence (P19327 1-422): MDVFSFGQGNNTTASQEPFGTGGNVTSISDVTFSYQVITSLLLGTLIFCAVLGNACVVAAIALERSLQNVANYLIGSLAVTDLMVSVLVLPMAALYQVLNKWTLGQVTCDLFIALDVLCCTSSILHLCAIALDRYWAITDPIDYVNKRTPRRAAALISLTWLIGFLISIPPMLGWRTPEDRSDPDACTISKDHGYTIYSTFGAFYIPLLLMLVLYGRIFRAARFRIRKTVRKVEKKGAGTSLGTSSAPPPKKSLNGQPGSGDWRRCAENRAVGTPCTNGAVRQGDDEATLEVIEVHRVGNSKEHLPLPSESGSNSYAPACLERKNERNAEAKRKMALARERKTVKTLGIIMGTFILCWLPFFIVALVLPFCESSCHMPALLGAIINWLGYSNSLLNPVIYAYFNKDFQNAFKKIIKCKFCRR
Procedure: Hippocampal tissue from the brains of male Sprague-Dawley rats (Charles River; weight range 150-250 g) was homogenised in ice-cold 50 mM Tris-HCl buffer (pH 7.7 when measured at 25° C., 1:40 w/v) and centrifuged at 30,000 g at 4° C. for 10 minutes. The pellet was rehomogenised in the same buffer, incubated at 37° C. for 10 minutes and centrifuged at 30,000 g at 4° C. for 10 minutes. The final pellet was resuspended in 50 mM Tris-HCl buffer (pH 7.7) containing 4 mM CaCl2, 0.1% L-ascorbic acid and 10 μM pargyline hydrochloride (equivalent to 6.25 mg wet weight of tissue/ml) and used immediately in the binding assay. Aliquots (400 μl; equivalent to 2.5 mg wet weight of tissue/tube) of this suspension were added to tubes containing the ligand (50 μl; 2 nM) and distilled water (50 μl total binding) or 5-HT (50 μl; 10 μM; non-specific binding) or test compound (50 μl; at a single concentration of 10^-6 M or at 10 concentrations ranging from 10^-11 -10^-3 M). The ligand was [^3 H]8-hydroxy-2-(dipropylamino)tetralin ([^3 H]8-OH-DPAT) and the mixture was incubated at 25° C. for 30 minutes before the incubation was terminated by rapid filtration.
(§1) The filters were washed with ice-cold Tris-HCl buffer and dried. The filters were punched out into vials, scintillation fluid added and radioactivity determined by liquid scintillation counting. The percentage displacement of specific binding of the tritiated ligand was calculated for the single concentration (10^-6 M) of test compound. Displacement curves were then produced for those compounds which displaced ≥50% of specific binding of the tritiated ligand at 10^-6 M using a range of concentrations of the compound. The concentration which gave 50% inhibition of specific binding (IC50) was obtained from the curve. The inhibition coefficient Ki was then calculated using the formula [formula] in which [ligand] is the concentration of the tritiated ligand used and KD is the equilibrium dissociation constant for the ligand.

α1-adrenoceptors = assay: inhibition of [7-methoxy-3H]prazosin binding to α1-adrenoceptors in rat whole cortical tissue; settings: rat whole cortex, 30 min; for % displacement of radio ligand, α1: at 10^-6 M, [7-methoxy-3H]prazosin, 1 µM; for Ki: [7-methoxy-3H]prazosin 0.1 nM, 30° C.
Procedure: Whole cortical tissue from the brains of male Charles River CD rats weighing between 150-250 g were homogenised in ice-cold 50 mM Tris-HCl, pH 7.6 (at 25° C.; 1:40 w/v) and centrifuged at 1000 g at 4° C. for 10 minutes. The supernatant was centrifuged at 30,000 g at 4° C. for 10 minutes. The pellet was rehomogenised in 50 mM Tris-HCl, pH 7.6 (1:40 w/v) and centrifuged at 30,000 g at 4° C. for 10 minutes. The final pellet was resuspended in 50 mM Tris-HCl, pH 7.6 (equivalent to 12.5 mg wet weight of tissue/ml) and used immediately in the binding assay. Aliquots (400 μl; equivalent to 5 mg wet weight of tissue/tube) of this suspension were added to tubes containing the ligand (50 μl; 0.1 nM) and distilled water (50 μl; total binding) or phentolamine (50 μl; 5 μM; non-specific binding) or test compound (50 μl; at a single concentration of 10^-6 M or at 10 concentrations ranging from 10^-11 -10^-3 M). The ligand was [7-methoxy-^3 H]prazosin and the mixture was incubated at 30° C. for 30 minutes before the incubation was terminated by rapid filtration.
as §1

D2 dopamine receptors = target: T2, D2 dopamine receptors (Rattus norvegicus, UniProt P61169); assay: inhibition of tritiated (S)-sulpiride binding to D2 dopamine receptors in rat striatal tissue; settings: rat striatum; for inhibition at 1 µM: at 10^-6 M, tritiated (S)-sulpiride, read-out: % displacement of radio ligand, D2; for Ki: tritiated (S)-sulpiride 1 nM, 4° C., 40 min
T2 construct: Striatal tissue from the brains of male Charles River CD rats; from tissue; host or cells: rat striatum membranes
T2 sequence (P61169 whole entry): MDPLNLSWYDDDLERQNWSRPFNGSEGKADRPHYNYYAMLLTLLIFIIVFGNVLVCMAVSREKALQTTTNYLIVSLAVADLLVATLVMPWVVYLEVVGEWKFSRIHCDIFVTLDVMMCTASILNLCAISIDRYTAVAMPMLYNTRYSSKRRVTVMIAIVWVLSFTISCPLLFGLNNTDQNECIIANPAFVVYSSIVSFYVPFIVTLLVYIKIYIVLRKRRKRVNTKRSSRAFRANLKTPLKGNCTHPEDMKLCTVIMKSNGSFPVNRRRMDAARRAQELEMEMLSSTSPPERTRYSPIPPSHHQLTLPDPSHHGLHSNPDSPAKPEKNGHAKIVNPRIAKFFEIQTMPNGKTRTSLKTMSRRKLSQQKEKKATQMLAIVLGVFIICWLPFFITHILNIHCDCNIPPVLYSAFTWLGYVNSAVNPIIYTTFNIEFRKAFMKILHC
Procedure: Striatal tissue from the brains of male Charles River CD rats weighing between 140-250 g were homogenised in ice-cold 50 mM Tris-HCl buffer (pH 7.7 when measured at 25° C.) and centrifuged at 40,000 g for 10 minutes. The pellet was resuspended in Tris salts buffer (50 mM Tris-HCl buffer containing 120 mM NaCl, 5 mM KCl, 2 mM CaCl2 and 1 mM MgCl2 with the addition of 6 mM ascorbic acid; pH 7.7 when measured at 25° C.), and again centrifuged at 40,000 g for 10 minutes. The final pellet was stored at -80° C. Before each test the pellet was resuspended in Tris salts buffer (equivalent to 2 mg wet weight of tissue/ml). Aliquots (720 μl; equivalent to 1.44 mg wet weight of tissue/tube) of this suspension were then added to tubes containing the ligand (40 μl; 1 nM) and Tris salts buffer (40 μl; total binding) or spiroperidol (40 μl; 10 nM; non-specific binding) or test compound (40 μl; at a single concentration of 10^-6 M or at 6 concentrations ranging from 10^-11 -10^-4 M). The ligand was tritiated (S)-sulpiride and the mixture was incubated at 4° C. for 40 minutes before the incubation was terminated by rapid filtration.
The filters were washed with ice-cold Tris-HCl buffer and dried. The filters were punched out in to vials, scintillation fluid added and were left for about 20 hours before being counted by scintillation spectrophotometry. The percentage displacement of specific binding of the tritiated ligand was calculated for the single concentration (10^-6 M) of test compound. Displacement curves were then produced over a range of concentrations for those compounds which displaced ≥50% of specific binding of the tritiated ligand at 10^-6 M. The concentration which gave a 50% inhibition of specific binding (IC50) was obtained from the curve. The inhibition coefficient Ki was then calculated using the formula [formula] in [ligand] is the concentration of the tritiated ligand used and KD is the 2 equilibrium dissociation constant for the ligand.

Row | inhibition at 1 µM (5-HT1A receptors) | % displacement of radio ligand, α1 (α1-adrenoceptors) | inhibition at 1 µM (D2 dopamine receptors) | Ki (5-HT1A receptors) | Ki (α1-adrenoceptors) | Ki (D2 dopamine receptors) | SMILES
1 | 81% | 41% | 81% |  |  |  | CSc1ncccc1C(=O)NCC1CCN(C[C@H]2COc3ccc(C)cc3O2)CC1 [Example 33, (S)-N-{[1-(7-methyl-1,4-benzodioxan-2-ylmethyl)-4-piperidyl]methyl}-2-(methylthio)pyridine-3-carboxamide]
2 |  |  |  | 7 nM | 130 nM | 43 nM | COc1ncccc1C(=O)NCC1CCN(C[C@H]2COc3ccc(Cl)cc3O2)CC1 [Example 26, (S)-N-{[1-(7-chloro-1,4-benzodioxan-2-ylmethyl)-4-piperidyl]methyl}-2-methoxypyridine-3-carboxamide]
3 | 80% | 93% | 101% |  |  |  | CSc1ncccc1C(=O)NCC1CCN(C[C@H]2COc3cccc(C(F)(F)F)c3O2)CC1 [Example 48, (S)-2-(methylthio)-N-{[1-(8-trifluoromethyl-1,4-benzodioxan-2-ylmethyl)-4-piperidyl]methyl}pyridine-3-carboxamide]
4 | 64% | 38% | 57% |  |  |  | CSc1ncccc1C(=O)NCC1CCN(C[C@H]2COc3ccc(F)cc3O2)CC1 [Example 44, (S)-N-{[1-(7-fluoro-1,4-benzodioxan-2-ylmethyl)-4-piperidyl]methyl}-2-(methylthio)pyridine-3-carboxamide]
5 | 80% | 54% | 98% |  |  |  | Cc1ncccc1C(=O)NCC1CCN(C[C@H]2COc3ccc(Br)cc3O2)CC1 [Example 36, (S)-N-{[1-(7-bromo-1,4-benzodioxan-2-ylmethyl)-4-piperidyl]methyl}-2-methylpyridine-3-carboxamide]
6 | 95% | 73% | 101% |  |  |  | O=C(NCC1CCN(C[C@H]2COc3ccc(Br)cc3O2)CC1)c1cccnc1 [Example 35, (S)-N-{[1-(7-bromo-1,4-benzodioxan-2-ylmethyl)-4-piperidyl]methyl}pyridine-3-carboxamide]
7 | 92% | 62% | 91% |  |  |  | O=C(NCC1CCN(C[C@H]2COc3ccc(Cl)cc3O2)CC1)c1cncc(Br)c1 [Example 42, (S)-5-bromo-N-{[1-(7-chloro-1,4-benzodioxan-2-ylmethyl)-4-piperidyl]methyl}pyridine-3-carboxamide]
8 | 80% | 94% | 97% |  |  |  | O=C(NCC1CCN(C[C@H]2COc3cccc(C(F)(F)F)c3O2)CC1)c1cccnc1 [Example 45, (S)-N-{[1-(8-trifluoromethyl-1,4-benzodioxan-2-ylmethyl)-4-piperidyl]methyl}pyridine-3-carboxamide]
9 |  |  |  | 30 nM | 49 nM | 11.4 nM | Nc1ncccc1C(=O)N1CCC(CNCC2COc3ccc(Cl)cc3O2)CC1 (racemic) [Example 19, 1-(2-aminonicotinoyl)-4-[N-(7-chloro-1,4-benzodioxan-2-ylmethyl)aminomethyl]piperidine]
10 | 95% | 98% | 101% |  |  |  | CSc1ncccc1C(=O)NCC1CCN(C[C@H]2COc3cccc(Cl)c3O2)CC1 [Example 51]
11 | 85% | 66% | 97% |  |  |  | O=C(NCC1CCN(C[C@H]2COc3ccc(Br)cc3O2)CC1)c1ccc(-n2cccc2)nc1 [Example 37, (S)-N-{[1-(7-bromo-1,4-benzodioxan-2-ylmethyl)-4-piperidyl]methyl}-6-(1-pyrrolyl)pyridine-3-carboxamide]
12 | 88% | 93% | 99% |  |  |  | O=C(NCC1CCN(C[C@H]2COc3cccc(C(F)(F)F)c3O2)CC1)c1cncc(Br)c1 [Example 49, (S)-5-bromo-N-{[1-(8-trifluoromethyl-1,4-benzodioxan-2-ylmethyl)-4-piperidyl]methyl}pyridine-3-carboxamide]
13 |  |  |  | 35 nM | 99 nM | 18 nM | Nc1ncccc1C(=O)NCC1CCN(C[C@H]2COc3ccc(Br)cc3O2)CC1 [Example 21, (S)-2-amino-N-{[1-(7-bromo-1,4-benzodioxan-2-ylmethyl)-4-piperidyl]methyl}pyridine-3-carboxamide]
14 | 87% | 68% | 86% |  |  |  | Cc1ccc2c(c1)O[C@@H](CN1CCC(CNC(=O)c3cncc(Br)c3)CC1)CO2 [Example 34, (S)-5-bromo-N-{[1-(7-methyl-1,4-benzodioxan-2-ylmethyl)-4-piperidyl]-methyl}pyridine-3-carboxamide]
15 | 86% | 98% | 104% |  |  |  | Cc1ncccc1C(=O)NCC1CCN(C[C@H]2COc3cccc(C(F)(F)F)c3O2)CC1 [Example 46, (S)-2-methyl-N-{[1-(8-trifluoromethyl-1,4-benzodioxan-2-ylmethyl)-4-piperidyl]methyl}pyridine-3-carboxamide]
